Results: patent publication US12551573B2, “Compositions and methods for the targeting of PCSK9” (Scribe Therapeutics Inc., priority 2022, dated 2026)

Columns and labels:
[1] = test system: human PCSK9 locus; test: Secreted PCSK9 by ELISA (normalized to total cell count) in Huh7 cells transfected with mRNA and gRNA; assay type: cell-based; details: paired with LTRP5-ADD-ZIM3 mRNA, Huh7 cells, 6 days post-transfection; for Secreted PCSK9: normalized to total cell count; for Percent reduction in PCSK9 secretion: relative to non-targeting gRNA control; for Average percent reduction in PCSK9 secretion: averaged from the two doses
Method in brief: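 Huh7 cells were transfected with CasX or epigenetic-editor mRNA plus PCSK9- or B2M-targeting gRNA (scaffold 316). In one screen, LTRP5-ADD-ZIM3 mRNA:gRNA was given at 50:25 or 25:12.5 ng by Lipofectamine 3000. Secreted PCSK9 was measured by ELISA in supernatant 4-87 days post-transfection and normalized to total cell count.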

[2] = test system: Huh7 cells; test: RNA-seq: differentially regulated off-target genes in transfected Huh7 cells; assay type: cell-based, human; details: 6 and 26 days, |log2FC|>2 and adjusted p-value<0.001, vs untreated naive
Text: (§1) Seeded Huh7 cells were transfected with mRNA encoding a catalytically-active CasX 676, dXR1, or LTRP5-ADD-ZIM3 and a gRNA with scaffold 316 and a spacer targeting the PCSK9 locus. Cells were harvested at 6 and 26 days post-transfection and subsequently lysed and stored in DNA/RNA Shield (Zymo Research). As an additional control, untreated, naïve cells were also harvested. The collected samples were subjected to gDNA/RNA extraction using the Quick-DNA/RNA Miniprep Plus kit (Zymo Research). RNA samples were used for total RNA sequencing (RNA-seq), which was performed by a third-party. Raw FASTQ files were received and processed with FASTQC, and adapters were trimmed using Trim Galore. Transcript expression was then quantified against the hg38 genome using Salmon to generate normalized counts for each gene (transcripts per million, or TPM). Differential expression analysis was performed using DESeq2. Genes with fewer than 10 counts in all samples were omitted from analysis, and all pairwise comparisons (e.g., differential gene expression analyses between untreated and treated conditions at the two individual timepoints) were done with significance thresholds of |log 2FC|>2 and adjusted p-value<0.001.

[3] = test system: human PCSK9 locus; test: RNA-seq: normalized PCSK9 read counts (log2FC) in transfected Huh7 cells; assay type: cell-based; details: mRNA + gRNA scaffold 316 (v1), 6 and 26 days post-transfection, vs untreated naive
Text: as §1

[4] = test system: PCSK9 protein; test: Western blot of intracellular pro-PCSK9 and processed PCSK9 in transfected HepG2 cells; assay type: cell-based, human; details: CasX 676 mRNA #2 + gRNA, western blot densitometry, two days post-transfection
Method: (§2) To determine whether use of certain PCSK9-targeting spacers would result in potential intracellular PCSK9 retention, ˜50,000 HepG2 cells were seeded per well in a 96-well plate. CasX 676 mRNA #2 was transfected into HepG2 cells with a PCSK9-targeting gRNA using Lipofectamine™. After a media change, the following were harvested two days post-transfection: 1) media supernatant to measure secreted PCSK9 protein levels by ELISA; and 2) transfected cells for western blotting analysis to evaluate intracellular PCSK9 levels. Harvested cells were subjected to whole cell lysate extraction for western blotting analysis. Briefly, extracted protein samples were resolved by SDS-PAGE followed by immunoblotting to analyze levels of pro-PCSK9 and processed PCSK9, which were quantified by densitometry. Secreted PCSK9 levels in the media supernatant were analyzed using the BioLegend® ELISA MAX™ kit following the manufacturer's instructions. Naïve, untreated cells and cells transfected with CasX 676 mRNA #2 only served as two experimental controls.

[5] = test system: human PCSK9 locus; test: Secreted PCSK9 by ELISA in HepG2 cells transfected with CasX 676 mRNA #2 and PCSK9-targeting gRNA; assay type: cell-based; details: CasX 676 mRNA #2 + gRNA scaffold 316 (v1), two days post-transfection
Method: In vitro transcription of CasX 676 mRNA #2 (sequence listed in Table 28, below) was performed as described in Example 7, below. Guide RNAs using scaffold 316 and a PCSK9-targeting spacer were synthesized with a v1 modification profile (as discussed in Example 7). Spacers 6.1, 6.8, 6.86, 6.114, 6.197, and 6.203 (sequences listed in Table 24) were assessed for intracellular PCSK9 retention.
as §2, with “Naïve, untreated cells and cells transfected with CasX 676 mRNA #2 only served as two experimental controls.” left out

[6] = test system: HBEGF locus; assay type: cell-based, human; details: HEK293T; dCasX491 fusion, scaffold 174 spacer 34.28; 2 ng/ml diphtheria toxin for 48 hours

Substance | Secreted PCSK9 ([1]; 25 ng mRNA:12.5 ng gRNA) [ng/mL] | Percent reduction in PCSK9 secretion ([1]; 25 ng mRNA:12.5 ng gRNA) [%] | Secreted PCSK9 ([1]; 50 ng mRNA:25 ng gRNA) [ng/mL] | Percent reduction in PCSK9 secretion ([1]; 50 ng mRNA:25 ng gRNA) [%] | Average percent reduction in PCSK9 secretion [1] [%] | number of differentially regulated off-target genes [2] | PCSK9 expression (RNA-seq) [3] | intracellular pro-PCSK9 / intracellular protein levels [4] | reduction in secreted PCSK9 levels compared to cells transfected with CasX 676 mRNA only [5] [%] | log 2 (fold change) of abundance before and after selection [6]
AGGGUGUGGGUGCUUGACGC (listed as RNA, chemistry not given here) [spacer 6.154, Promoter] | 24.48 | 65.64 | 6.87 | 91.65 | 78.64 | higher number of differentially regulated off-target genes | durably repress PCSK9 expression through day 26 |  |  | 
AUGGUAGGCACAAGCUCAGC (listed as RNA, chemistry not given here) [spacer 6.133, Promoter] | 42.13 | 40.86 | 29.45 | 64.21 | 52.53 | lowest number of differentially regulated off-target genes | durably repress PCSK9 expression through day 26 |  |  | 
CACUGAAUAGCGCAGCCGCA (listed as RNA, chemistry not given here) [spacer 6.167, Intron 1] | 66.61 | 6.51 | 39.55 | 51.93 | 29.22 | higher number of differentially regulated off-target genes | durably repress PCSK9 expression through day 26 |  |  | 
GAGGAGGACGGCCUGGCCGA (listed as RNA, chemistry not given here) [spacer 6.1, Exon 1] | 32.86 | 53.88 | 18.21 | 77.86 | 65.87 |  |  | did not result in substantially increased pro-PCSK9 levels | ~50 | 
ZIM3: human ZIM3 KRAB repressor domain, SEQ ID NO: 128 [reference compound] |  |  |  |  |  |  |  |  |  | 1.7787
standard ZNF10: human ZNF10 KRAB repressor domain, SEQ ID NO: 129 [reference compound] |  |  |  |  |  |  |  |  |  | 1.3637
